Tests used:
[1] = test system: Trametes versicolor (MAD 697); experiment: Soil block decay test (AWPA E10-87), white rot; format: cell-based
Excerpt: (§1) Wood flakeboard was manufactured by conventional wood processing techniques, incorporating various borates at a range of concentrations, from 0.5 to 2.0% boric acid equivalent (BAE). Boric acid (H3BO3) equivalent is a commonly used convention for comparing various borates on an equivalent contained-boron basis. For each borate/loading combination, fifteen pounds of aspen (Populus tremuloides) furnish having an average particle size of about 2.5×0.75×0.025 inches, was blended with 0.75 pounds (5%) Rubinate 1840 (product of ICI), a polymeric methylene diphenyl diisocyanate adhesive, 0.11 pounds (0.75%) of Cascowax EW 403HS (product of Borden) and various concentrations of nine test borates. For each borate/loading combination, three 18″×18″ composite boards of 0.5 inch thickness were formed by pressing for 210 seconds at (180 seconds pressure, 30 seconds pressure release) at 204.5° C. (the pressure was kept in excess of 6000 psi during the pressure cycle). Each board was trimmed to 15″×15″ and cut to produce internal bond and analytical/soil block specimens for evaluation. Replicates were cut from the inner portion of the boards. Four internal bond, two leaching panels and twenty analytical/soil block specimens were cut from each board.
(§2) The panels to be leached (4.5″×4.5″) were edge sealed with an epoxy sealant and leached for two weeks. Leaching began with pressure treatment of the specimens with water for 30 minutes under vacuum and one hour under pressure. The specimens were removed from the pressure treatment chamber and the residual water was changed after two hours, then daily for the remainder of the leaching period. Afterward, they were trimmed to remove the sealed edges and cut into analytical/soil block test samples. Unleached and leached analytical/soil block samples for each board type were separately randomized. Fifteen were analyzed for borate content and ten were retained for the soil block decay test.
(§3) The soil block test was conducted in accordance with AWPA E10-87, with the exception that soil block dimensions were 1.0″×1.0″×0.5″. The fungi used were Gloeophyllum trabeum (ATCC 11539) for brown rot test and Trametes versicolor (MAD 697) for white rot test. An untreated composite control was run both unleached and leached. Solid southern yellow pine and birch were also run as unleashed controls against G. trabeum and T. versicolor, respectively as a test of fungal vigor.

[2] = Borate content of composite after two weeks water leaching; format: physicochemical; settings: leached two weeks
Procedure: as §2

[3] = Bulk solids flow testing, J. R. Johanson Indicizer System; format: physicochemical; settings: for Hopper Index Stainless Steel / Chute Index Stainless Steel: 304-2B Stainless Steel; for Hopper Index Stainless Steel / Hopper Index Plastic / Hopper Index Carbon Steel: maximum angle from the vertical, larger is better; for Chute Index Stainless Steel / Chute Index Plastic / Chute Index Carbon Steel: minimum angle from horizontal, smaller is better; for Hopper Index Plastic / Chute Index Plastic: Tivar UHMWPE plastic; for Hopper Index Carbon Steel / Chute Index Carbon Steel: aged carbon steel; for Arching Index / Ratholing Index: multiple of the discharge opening, less than 1 necessary for free flow, average of 3-6 tests
Excerpt: Bulk solids flow testing was done using the J. R. Johanson Indicizer System, including a Hang-up Indicizer and Hopper Indicizer, manufactured by J R Johanson, Inc. 712 Fiero Lane #37, San Luis Obispo, Calif. 93401. The test procedures are described in detail in their company literature (BULK SOLIDS INDICES TESTING, Hang-up Indicizer™ Instruction Manual ©JR Johanson, Inc. 1991 and BULK SOLIDS INDICES TESTING, Hopper Indicizer™ Instruction Manual ©JR Johanson, Inc. 1991). The results are presented in the following Table 3 as the Arching Index, Ratholing Index, Hopper Index and Chute Index, which are the average of several tests (3-6). The meaning and usefulness of these flow indices in evaluating the flow properties of bulk solids are also described in literature from JR Johanson, Inc., including Binside Scoop™, Vol. 7, No. 2, Fall 1994, Binside Scoop™, Vol. 8, No. 3, Winter 1995, and “Bulk solids Flow Indices—A Simplified Evaluation system”, by Jerry R. Johanson, ©JR Johanson, 1991.
Arching Index—A tendency of a cohesive material is to plug up the opening of a bin by forming an “arch” over the discharge opening. The arching index is given as a multiple of the discharge opening, so less than 1 is necessary for free flow. Numbers greater than 1 reflect a need to enlarge the opening.
Ratholing Index—A tendency of a cohesive material is to hang up on the sides of a bin while an open hole forms in the center and flow ceases. Rathole indices are also given as a multiple of the discharge opening and a number of less than 1 is necessary for free flow. Numbers greater than 1 mean the bins should be redesigned.
Hopper Index—The maximum angle, measured in degrees from the vertical, that is required for the conical portion of a hopper in order to produce reliable mass flow. A larger number is better.
Chute Index—The minimum angle, measured in degrees from horizontal, required for flow down a chute and to prevent material buildup at impact areas. A smaller number is better. Chute indices may often be close to the angle of repose.
Both hopper and chute indices measurements involve friction over a specified surface and measurements are made using substrates of the material of construction. The substrates used for these tests are 304-2B Stainless Steel, aged carbon steel and Tivar UHMWPE (ultra high molecular weight polyethylene) plastic.

[4] = test system: Gloeophyllum trabeum (ATCC 11539); experiment: Soil block decay test (AWPA E10-87), brown rot; format: cell-based
Excerpt: as §1, §2, §3

[5] = leached two weeks, target loading 0.5% BAE (0.09% B)
[6] = leached two weeks, target loading 1.0% BAE (0.17% B)
[7] = leached two weeks, target loading 2.0% BAE (0.35% B)
[8] = unleached aspen flakeboard, target loading 0.5% BAE (0.09% B)
[9] = unleached aspen flakeboard, target loading 1.0% BAE (0.17% B)
[10] = unleached aspen flakeboard, target loading 2.0% BAE (0.35% B)
[11] = target loading 0.5% BAE (0.09% B)
[12] = target loading 1.0% BAE (0.17% B)
[13] = target loading 2.0% BAE (0.35% B)

Molecule	Mean % Wt. Loss T. versicolor [1, 5] [%]	Mean % Wt. Loss T. versicolor [1, 6] [%]	Mean % Wt. Loss T. versicolor [1, 7] [%]	Mean % Wt. Loss T. versicolor [1, 8] [%]	Mean % Wt. Loss T. versicolor [1, 9] [%]	Mean % Wt. Loss T. versicolor [1, 10] [%]	Assay % B [2, 11] [% B]	Assay % B [2, 12] [% B]	Assay % B [2, 13] [% B]	Mean % Wt. Loss G. trabeum [4, 5] [%]	Mean % Wt. Loss G. trabeum [4, 6] [%]	Mean % Wt. Loss G. trabeum [4, 7] [%]	Mean % Wt. Loss G. trabeum [4, 8] [%]	Mean % Wt. Loss G. trabeum [4, 9] [%]	Mean % Wt. Loss G. trabeum [4, 10] [%]	also measured
Zinc Borate [reference compound]	22.9	7.0	2.0	8.3	2.9	1.6	0.05	0.10	0.23	2.3	0.9	0.8	0.9	0.8	1.0	Hopper Index Stainless Steel [3]: 13 degrees; Chute Index Stainless Steel [3]: 38 degrees; Hopper Index Plastic [3]: 13 degrees; Chute Index Plastic [3]: 58 degrees; Hopper Index Carbon Steel [3]: 12 degrees; Chute Index Carbon Steel [3]: 44 degrees; Arching Index [3]: 0.5; Ratholing Index [3]: 2.9
Gowerite	24.7	14.7	11.8	5.5	3.1	2.6	0.04	0.07	0.09	7.4	5.8	3.1	0.9	0.9	1.3	–
Hydroboracite	27.1	21.0	4.5	2.8	3.6	2.2	0.05	0.06	0.13	9.4	4.2	1.8	1.1	1.0	2.2	–
Nobleite	27.6	11.6	10.1	5.3	3.6	2.6	0.03	0.06	0.09	5.4	1.4	1.5	1.1	1.0	1.4	Hopper Index Stainless Steel [3]: 16 degrees; Chute Index Stainless Steel [3]: 45 degrees; Hopper Index Plastic [3]: 17 degrees; Chute Index Plastic [3]: 41 degrees; Hopper Index Carbon Steel [3]: 14 degrees; Chute Index Carbon Steel [3]: 47 degrees; Flow properties, summary ([3]; compared with zinc borate, Colemanite F and Colemanite, Glass Grade): superior flow properties; Arching Index [3]: 0.2; Ratholing Index [3]: 0.5
Ulexite	22.3	11.0	7.2	13.9	3.4	3.0	0.03	0.08	0.11	6.6	1.0	1.3	1.4	0.8	1.8	–
O=BOB=O [Boric Oxide (60m), Boric Oxide, reference compound]	50.4	35.8	23.2	7.6	3.6	3.7	0.02	0.03	0.07	8.0	6.0	3.3	1.6	0.7	1.1	–
O=BOB=O [Boric Oxide (4m), Boric Oxide, reference compound]	34.3	29.5	9.5	7.5	9.0	2.9	0.02	0.04	0.09	15.5	7.4	3.0	2.6	1.4	1.7	–

Reference: US6368529B1, “Lignocellulosic composite” (U.S. Borax Inc., priority 2000, dated 2002)
